# Experimental data: PMC6751662, “Pharmacological and functional similarities of the human neuropeptide Y system in C. elegans challenges phylogenetic views on the FLP/NPR system” (Cell Communication and Signaling : CCS, 2019)
# Key:
# NPR-3 = molecular target: T1, NPR-3 (Caenorhabditis elegans, UniProt P90745); test: cAMP reporter gene assay, Gi/o (inhibition of forskolin-induced cAMP), NPR-3; type: cell-based, C. elegans; settings: for cAMP, x-fold of forskolin (mean), NPR-3: 1 µM forskolin set to 1.00, transiently transfected HEK293 cells, mean of at least three independent experiments; for cAMP assay Gi, NPR-3: 4 h, lower = higher Gi/o activity, transfected HEK293, CRE-luciferase, mean of >=3 independent experiments
# T1 construct: expressed in transfected cells; host or cells: HEK293
# T1 sequence (P90745 1-376): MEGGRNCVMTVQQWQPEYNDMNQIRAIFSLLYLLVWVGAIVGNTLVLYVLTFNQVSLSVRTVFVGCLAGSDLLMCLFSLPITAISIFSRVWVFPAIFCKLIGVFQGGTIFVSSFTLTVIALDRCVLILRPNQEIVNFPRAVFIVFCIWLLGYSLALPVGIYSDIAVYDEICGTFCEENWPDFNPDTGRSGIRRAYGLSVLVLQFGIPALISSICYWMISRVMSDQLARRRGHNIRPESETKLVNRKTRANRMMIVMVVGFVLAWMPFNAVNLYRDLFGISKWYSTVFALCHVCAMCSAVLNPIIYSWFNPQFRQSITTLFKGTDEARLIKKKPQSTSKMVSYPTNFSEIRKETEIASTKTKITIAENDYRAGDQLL
# Protocol: (§1) Activation of Gs and Gi/o was assessed with a cAMP reporter gene assay. HEK293 cells grown to 70–80% confluency in 6-well plates were transiently co-transfected with vectors encoding the receptor and the cAMP reporter gene plasmid pGL4.29 [luc2P/CRE/Hygro] (Promega; 4 μg total, 1:1 ratio) using Metafectene Pro (3 μl/μg DNA; Biontex) following the manufacturer’s instructions. 16 h post transfection, the cells were seeded into white 384-well plates at a density of 20,000 cells/well. On the next day, the medium was removed and the cells were stimulated with 20 μl of peptide solution (or forskolin as positive control) in serum-free DMEM for 4 h. For measuring Gi/o activity, the peptide solutions additionally contained 1 μM forskolin to elevate cellular cAMP levels. After incubation, the luciferase substrate OneGlo in lysis buffer (Promega) was added and the luminescence was measured in a microplate reader Tecan Spark (Tecan). Data were analyzed with GraphPad Prism 5.03 and are shown as fold of basal or fold of forskolin in case of Gαi/o activity.
# (§2) For in vitro activation, data is presented as mean ± SEM of at least three independent experiments conducted in technical triplicate. […] For the C. elegans NPRs, we considered the strongest response elicited by any of the peptides downstream of a particular receptor as the receptor’s maximal signal. This may or may not be the biological maximum that can be reached by the ‘true’ endogenous agonist. For the human receptors, the response to the established endogenous agonist reflected the maximal signal.
# Y1R = molecular target: T2, Y1R (Homo sapiens, UniProt P25929); test: IP accumulation assay, chimeric GαΔ6qi4myr, Y1R; type: cell-based; settings: chimeric GαΔ6qi4myr co-transfected, transiently transfected HEK293 cells, mean of at least three independent experiments
# T2 construct: expressed in transfected cells; host or cells: HEK293, transient
# T2 sequence (P25929 1-384): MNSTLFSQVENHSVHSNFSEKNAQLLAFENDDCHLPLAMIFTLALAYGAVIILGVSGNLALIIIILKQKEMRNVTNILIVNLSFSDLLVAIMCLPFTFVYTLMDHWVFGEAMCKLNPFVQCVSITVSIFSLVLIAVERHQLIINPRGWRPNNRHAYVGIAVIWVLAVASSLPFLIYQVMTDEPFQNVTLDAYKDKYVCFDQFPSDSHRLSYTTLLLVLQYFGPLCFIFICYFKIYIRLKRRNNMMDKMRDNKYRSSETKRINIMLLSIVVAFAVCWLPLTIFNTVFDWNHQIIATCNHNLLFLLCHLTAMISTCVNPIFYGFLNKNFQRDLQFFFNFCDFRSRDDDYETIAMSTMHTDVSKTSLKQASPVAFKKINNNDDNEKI
# Protocol: For measuring IP accumulation, HEK293 cells grown to 70–80% confluency in 6-well plates were transiently co-transfected using Metafectene Pro (2.5 μl/μg DNA; Biontex) with plasmids containing receptor and/or mock (empty pcDNA3.1) (for endogenous Gq-coupling) using 4 μg total DNA in a ratio of 3:1 following the manufacturer’s instructions. For testing Gα16- and GαΔ6qi4myr-coupling, plasmids encoding the corresponding Gα protein were co-transfected instead of mock. Gα16 is naturally promiscuous and stimulates the phospholipase C (PLC) pathway leading to IP production, while the exchange of the C-terminal four amino acids of Gαq for the corresponding residues of Gαi1 in the chimeric GαΔ6qi4myr confers the ability to couple to Gi/o protein-preferring receptors but still stimulate PLC, thus specifically redirecting downstream cellular signaling. 16 h post transfection, the cells were seeded into white 384-well plates at a density of 20,000 cells/well. Media was removed 24 h later and the cells were incubated with the indicated concentration of peptides for 1 h in HBSS + 20 mM LiCl. IP accumulation was measured with the HTRF-based IP-One Gq kit (Cisbio) on a microplate reader (Tecan Spark).
# as §2
# NPR-6 = test: cAMP reporter gene assay, Gi/o (inhibition of forskolin-induced cAMP), NPR-6; type: cell-based, C. elegans; settings: for cAMP, x-fold of forskolin (mean), NPR-6: 1 µM forskolin set to 1.00, transiently transfected HEK293 cells, mean of at least three independent experiments; for cAMP assay Gi, NPR-6: 4 h, lower = higher Gi/o activity, transfected HEK293, CRE-luciferase, mean of >=3 independent experiments
# Protocol: as §1, §2
# NPR-4b = molecular target: T3, NPR-4b (Caenorhabditis elegans, UniProt A0A078BTK0); test: cAMP reporter gene assay, Gi/o (inhibition of forskolin-induced cAMP), NPR-4b; type: cell-based, C. elegans; settings: for cAMP, x-fold of forskolin (mean), NPR-4b: 1 µM forskolin set to 1.00, transiently transfected HEK293 cells, mean of at least three independent experiments; for cAMP assay Gi, NPR-4b: 4 h, lower = higher Gi/o activity, transfected HEK293, CRE-luciferase, mean of >=3 independent experiments
# T3 sequence (A0A078BTK0 1-376): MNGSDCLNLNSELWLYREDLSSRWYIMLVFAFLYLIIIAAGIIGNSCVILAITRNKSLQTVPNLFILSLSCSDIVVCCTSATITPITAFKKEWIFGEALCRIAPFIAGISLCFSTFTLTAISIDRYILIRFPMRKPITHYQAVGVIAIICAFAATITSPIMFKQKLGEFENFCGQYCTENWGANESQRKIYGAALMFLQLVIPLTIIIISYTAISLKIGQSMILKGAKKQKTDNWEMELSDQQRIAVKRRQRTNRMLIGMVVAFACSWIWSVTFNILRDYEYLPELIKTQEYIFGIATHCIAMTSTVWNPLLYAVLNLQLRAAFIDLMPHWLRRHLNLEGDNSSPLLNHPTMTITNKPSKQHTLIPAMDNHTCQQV
# Protocol: as §1, with “(Tecan).” for “(Tecan). Data were analyzed with GraphPad Prism 5.03 and are shown as fold of basal or fold of forskolin in case of Gαi/o activity.”
# as §2
# [1] = 0.1 µM peptide + 1 µM forskolin (set to 1.00)
# [2] = 10 µM peptide + 1 µM forskolin (set to 1.00)
substance,measurement,setting,value
PrRP31 [reference compound],"cAMP, x-fold of forskolin (mean), NPR-3",NPR-3; 0.1 µM peptide,1.10 x-fold of forskolin
same,"cAMP, x-fold of forskolin (mean), NPR-3",NPR-3; 10 µM peptide,1.29 x-fold of forskolin
same,"IP accumulation, x-fold of basal (mean), Y1R",Y1R; 0.1 µM peptide,0.87 x-fold of basal
same,"IP accumulation, x-fold of basal (mean), Y1R",Y1R; 10 µM peptide,1.86 x-fold of basal
same,"cAMP, x-fold of forskolin (mean), NPR-6",NPR-6; 0.1 µM peptide,0.96 x-fold of forskolin
same,"cAMP, x-fold of forskolin (mean), NPR-6",NPR-6; 10 µM peptide,1.25 x-fold of forskolin
same,"cAMP, x-fold of forskolin (mean), NPR-4b",NPR-4b; 0.1 µM peptide,1.05 x-fold of forskolin
same,"cAMP, x-fold of forskolin (mean), NPR-4b",NPR-4b; 10 µM peptide,0.64 x-fold of forskolin
"APLEPVYPGDNATPEQMAQYAADLRRYINMLTRPRY-NH2 [PP, human pancreatic polypeptide, reference compound]","cAMP, x-fold of forskolin (mean), NPR-3",NPR-3; 0.1 µM peptide,1.02 x-fold of forskolin
same,"cAMP, x-fold of forskolin (mean), NPR-3",NPR-3; 10 µM peptide,1.25 x-fold of forskolin
same,"IP accumulation, x-fold of basal (mean), Y1R",Y1R; 0.1 µM peptide,17.01 x-fold of basal
same,"IP accumulation, x-fold of basal (mean), Y1R",Y1R; 10 µM peptide,25.89 x-fold of basal
same,"cAMP, x-fold of forskolin (mean), NPR-6",NPR-6; 0.1 µM peptide,1.01 x-fold of forskolin
same,"cAMP, x-fold of forskolin (mean), NPR-6",NPR-6; 10 µM peptide,1.00 x-fold of forskolin
same,"cAMP, x-fold of forskolin (mean), NPR-4b",NPR-4b; 0.1 µM peptide,1.05 x-fold of forskolin
same,"cAMP, x-fold of forskolin (mean), NPR-4b",NPR-4b; 10 µM peptide,1.14 x-fold of forskolin
"TPDINPAWYASRGIRPVGRF-NH2 [PrRP20, human prolactin-releasing peptide, 20 residues, reference compound]","cAMP, x-fold of forskolin (mean), NPR-3",NPR-3; 0.1 µM peptide,1.00 x-fold of forskolin
same,"cAMP, x-fold of forskolin (mean), NPR-3",NPR-3; 10 µM peptide,1.23 x-fold of forskolin
same,"IP accumulation, x-fold of basal (mean), Y1R",Y1R; 0.1 µM peptide,0.82 x-fold of basal
same,"IP accumulation, x-fold of basal (mean), Y1R",Y1R; 10 µM peptide,2.68 x-fold of basal
same,"cAMP, x-fold of forskolin (mean), NPR-6",NPR-6; 0.1 µM peptide,0.96 x-fold of forskolin
same,"cAMP, x-fold of forskolin (mean), NPR-6",NPR-6; 10 µM peptide,1.19 x-fold of forskolin
same,"cAMP, x-fold of forskolin (mean), NPR-4b",NPR-4b; 0.1 µM peptide,1.10 x-fold of forskolin
same,"cAMP, x-fold of forskolin (mean), NPR-4b",NPR-4b; 10 µM peptide,0.67 x-fold of forskolin
"APKPKFIRF-NH2 [FLP-5-1, C. elegans FMRFamide-like peptide, C-terminally amidated, synthesized by SPPS]","cAMP assay Gi, NPR-3",NPR-3; [1],0.68 x-fold of forskolin
same,"cAMP, x-fold of forskolin (mean), NPR-3",NPR-3; 0.1 µM peptide,0.66 x-fold of forskolin
same,"cAMP assay Gi, NPR-3",NPR-3; [2],0.87 x-fold of forskolin
same,"cAMP, x-fold of forskolin (mean), NPR-3",NPR-3; 10 µM peptide,0.86 x-fold of forskolin
same,"IP accumulation, x-fold of basal (mean), Y1R",Y1R; 0.1 µM peptide,1.02 x-fold of basal
same,"IP accumulation, x-fold of basal (mean), Y1R",Y1R; 10 µM peptide,1.69 x-fold of basal
same,"cAMP assay Gi, NPR-6",NPR-6; [1],0.85 x-fold of forskolin
same,"cAMP, x-fold of forskolin (mean), NPR-6",NPR-6; 0.1 µM peptide,0.84 x-fold of forskolin
same,"cAMP assay Gi, NPR-6",NPR-6; [2],1.01 x-fold of forskolin
same,"cAMP, x-fold of forskolin (mean), NPR-6",NPR-6; 10 µM peptide,1.01 x-fold of forskolin
same,"cAMP assay Gi, NPR-4b",NPR-4b; [1],0.75 x-fold of forskolin
same,"cAMP, x-fold of forskolin (mean), NPR-4b",NPR-4b; 0.1 µM peptide,0.73 x-fold of forskolin
same,"cAMP assay Gi, NPR-4b",NPR-4b; [2],0.40 x-fold of forskolin
same,"cAMP, x-fold of forskolin (mean), NPR-4b",NPR-4b; 10 µM peptide,0.36 x-fold of forskolin
